What all share (assay type): functional, cell-based
One assay deals with HepG2. Briefly: Cytotoxicity against human HepG2 cells after 48 hrs by MTT assay. To be noted: HepG2, 48 h.
In a further assay the test system is MOLT-3. Kind of assay: Cytotoxicity against human MOLT3 cells after 48 hrs by XTT assay. Particulars: MOLT-3, 48 h. A general note: Tetrazolium dyes change colour on reduction, which living cells bring about.
For the next assay, the system named is A549. Kind of assay: Cytotoxicity against human A549 cells after 48 hrs by MTT assay. To be noted: A549, 48 h.
Assay [1] in a line: Cytotoxicity against human HuCCa1 cells after 48 hrs by MTT assay. Particulars: HuCC-A1, 48 h.

A value given as a limit tells only on which side of the number the result lay.

Broadly, the IC50 is the concentration at which inhibition is half-maximal. Higher therefore signals a need for much substance. On to `Nc1ccc(S(=O)(=O)NCCc2ccccc2)cc1`, for which the IC50 is above 50 µg/mL with HepG2, 167 µM in the assay on MOLT-3, above 50 µg/mL in the assay on A549 and above 50 µg/mL in assay [1].

`O=c1ccc2ccc(OCc3cn(-c4ccc(S(=O)(=O)NCCc5ccccc5)cc4)nn3)cc2o1`: the IC50 with HepG2 was 12.4 µM; in the assay on MOLT-3, 89 µM; in the assay with A549, 19.6 µM; in assay [1] it was 16.1 µM.

Turning to `O=c1cc(OCc2cn(-c3ccc(S(=O)(=O)NCCc4ccccc4)cc3)nn2)c2ccccc2o1`, the IC50 in the assay on HepG2 is above 50 µg/mL; in the assay on MOLT-3, 10.7 µM; with A549 it was above 50 µg/mL; in assay [1], above 50 µg/mL.

For the compound `COc1ccc(CCNS(=O)(=O)c2ccc(-n3cc(-c4ccccc4)nn3)cc2)cc1OC`, the IC50 with HepG2 is 23.9 µM; with MOLT-3, 61 µM; in the assay with A549 it was 18.2 µM; in assay [1], above 50 µg/mL.

For `COc1ccc(CCNS(=O)(=O)c2ccc(-n3cc(COc4ccc(C=O)cc4)nn3)cc2)cc1OC`, the IC50 in the assay with HepG2 is above 50 µg/mL; in the assay on MOLT-3, 17.4 µM; in the assay on A549, 28 µM; in assay [1], above 50 µg/mL.

Consider `COc1ccc(CCNS(=O)(=O)c2ccc(-n3cc(COc4ccc([N+](=O)[O-])cc4)nn3)cc2)cc1OC`, for which the IC50 is above 50 µg/mL in the assay with HepG2, 10.1 µM in the assay with MOLT-3, above 50 µg/mL with A549 and above 50 µg/mL in assay [1].

For the compound `COc1ccc(CCNS(=O)(=O)c2ccc(N)cc2)cc1OC`, the IC50 in the assay with HepG2 was above 50 µg/mL; in the assay on MOLT-3, 104 µM; with A549, above 50 µg/mL; in assay [1], above 50 µg/mL.

On to `[N-]=[N+]=Nc1ccc(S(=O)(=O)NCCc2ccccc2)cc1`, for which the IC50 was 92.6 µM with HepG2, 60.1 µM with MOLT-3, 139 µM in the assay with A549 and above 50 µg/mL in assay [1].

As to `COc1ccc(CCNS(=O)(=O)c2ccc(N=[N+]=[N-])cc2)cc1OC`, the 50% inhibitory concentration (IC50) is 122 µM with HepG2, 48.5 µM in the assay with MOLT-3, above 50 µg/mL in the assay with A549 and above 50 µg/mL in assay [1].

As for `O=S(=O)(NCCc1ccccc1)c1ccc(-n2cc(-c3ccccc3)nn2)cc1`, the IC50 in the assay on HepG2 was 9.07 µM; with MOLT-3, above 50 µg/mL; in the assay with A549, 34.5 µM; in assay [1], 8.65 µM.

As for `O=S(=O)(NCCc1ccccc1)c1ccc(-n2cc(COc3ccccc3)nn2)cc1`, the IC50 in the assay with HepG2 is 57.5 µM; in the assay with MOLT-3, above 50 µg/mL; in the assay on A549, above 50 µg/mL; in assay [1] it was above 50 µg/mL.

As for `O=S(=O)(NCCc1ccccc1)c1ccc(-n2cc(COc3cccc4ccccc34)nn2)cc1`, the IC50 (with HepG2; in the assay with MOLT-3; in the assay with A549; in assay [1]) was above 50 µg/mL throughout.

With `O=S(=O)(NCCc1ccccc1)c1ccc(-n2cc(COc3ccc4ccccc4c3)nn2)cc1`, the IC50 was 28.2 µM in the assay on HepG2, 74.2 µM with MOLT-3, above 50 µg/mL in the assay on A549 and above 50 µg/mL in assay [1].

Consider `Cc1ccc(OCc2cn(-c3ccc(S(=O)(=O)NCCc4ccccc4)cc3)nn2)cc1`, for which the IC50 is 81.8 µM in the assay with HepG2, above 50 µg/mL with MOLT-3, above 50 µg/mL in the assay on A549 and above 50 µg/mL in assay [1].

As to `O=Cc1ccc(OCc2cn(-c3ccc(S(=O)(=O)NCCc4ccccc4)cc3)nn2)cc1`, the IC50 with HepG2 is 101 µM; in the assay on MOLT-3, 32 µM; in the assay on A549, above 50 µg/mL; in assay [1] it was 87.9 µM.

On to `O=[N+]([O-])c1ccc(OCc2cn(-c3ccc(S(=O)(=O)NCCc4ccccc4)cc3)nn2)cc1`, for which the IC50 is above 50 µg/mL in the assay on HepG2, 61.4 µM in the assay with MOLT-3, above 50 µg/mL in the assay on A549 and above 50 µg/mL in assay [1].

Turning to `Cc1ccccc1OCc1cn(-c2ccc(S(=O)(=O)NCCc3ccccc3)cc2)nn1`, the IC50 with HepG2 was 41.6 µM; with MOLT-3, 34.2 µM; with A549, above 50 µg/mL; in assay [1], above 50 µg/mL.

For `COC(=O)c1ccccc1OCc1cn(-c2ccc(S(=O)(=O)NCCc3ccccc3)cc2)nn1`, the IC50 was 49.4 µM in the assay on HepG2, 8.81 µM in the assay on MOLT-3, above 50 µg/mL in the assay on A549 and above 50 µg/mL in assay [1].

As for `COc1cc(C=O)ccc1OCc1cn(-c2ccc(S(=O)(=O)NCCc3ccccc3)cc2)nn1`, the IC50 in the assay on HepG2 was 57.5 µM; in the assay with MOLT-3 it was 9.22 µM; in the assay on A549 it was 79.2 µM; in assay [1], above 50 µg/mL.

For the compound `COc1ccc(C=O)cc1OCc1cn(-c2ccc(S(=O)(=O)NCCc3ccccc3)cc2)nn1`, the IC50 in the assay with HepG2 is 34.5 µM; in the assay on MOLT-3, 10.3 µM; with A549, 39 µM; in assay [1], above 50 µg/mL.

On to `COc1cccc2c1C(=O)c1c(O)c3c(c(O)c1C2=O)C[C@@](O)(C(=O)CO)C[C@@H]3O[C@H]1C[C@H](N)[C@H](O)[C@H](C)O1` [DOXORUBICIN], for which the IC50 turned out to be 0.79 µM in the assay with HepG2, 0.44 µM in the assay with A549 and 0.83 µM in assay [1].

Consider `COc1cc([C@@H]2c3cc4c(cc3[C@@H](O[C@@H]3O[C@@H]5CO[C@@H](C)O[C@H]5[C@H](O)[C@H]3O)[C@H]3COC(=O)[C@H]23)OCO4)cc(OC)c1O` [ETOPOSIDE], for which the figures for the IC50 in the assay with HepG2 and in the assay with MOLT-3 were 30.2 µM and 0.051 µM, respectively.

The values are drawn from ChEMBL document CHEMBL2429807, “Synthesis and cytotoxicity of novel 4-(4-(substituted)-1H-1,2,3-triazol-1-yl)-N-phenethylbenzenesulfonamides” (Med Chem Res, 2013).
